Reference: patent US20230151003A1, “COMPOUNDS AND METHODS OF USE” (Exelixis, Inc., priority 2020, published 2023)

Key:
Assay type in all cases: cell-based
KDR = KDR (Homo sapiens, UniProt P35968); experiment: KDR autophosphorylation ELISA in HUVEC cells; parameters: endogenous in cells; host or cells: HUVEC (Lonza #C2519A); details: Table 3 Cellular Activities, VEGF165-stimulated, phospho-KDR ELISA
Description: Human umbilical vein endothelial cells or HUVEC (Lonza #C2519A) were seeded at 2×10^4 cells/well onto 96-well plates (Corning #3904), in EGM-2 growth medium (Lonza #CC-3162) containing 1% Penicillin Streptomycin (Thermo Fisher #15140-122). HUVEC cells were incubated at 37° C., 5% CO2 for 24 h and then starved for 24 h in serum-free EBM-2 basal medium (Lonza #CC-3156) containing 1% Penicillin Streptomycin. Test compounds were serially diluted to produce an 8-point dose curve in fresh serum-free medium to a final concentration of 0.3% DMSO (vehicle) and added to the cells and incubated for 1 h. Cells were then stimulated with 100 ng/mL recombinant human VEGF165 (R&D Systems #293-VE-500) for 5 min, washed with cold PBS, and immediately lysed with 130 μL of cold 1× lysis buffer [20 mM Tris, 137 mM sodium chloride, 2 mM EDTA, 10% glycerol, 1% NP-40 alternative, 1 mM activated sodium orthovanadate, 1 mM PefaBloc SC (Sigma-Aldrich #11429868001), protease/phosphatase inhibitor tablet (Thermo Fisher #A32959)]. Lysates were collected and 100 μL/well added into the human phospho-KDR DuoSet IC ELISA (R&D Systems #DYC1766-2). Assay was performed according to manufacturer's instructions and sample phospho-KDR concentrations were extrapolated using human phospho-KDR control (R&D Systems #841421) as a standard. Positive control wells (100% activity) contained VEGF165-stimulated, DMSO-treated cell lysates. Negative control wells (0% activity) contained non-stimulated cell lysates. IC50 values were calculated by nonlinear regression analysis using a 4-parameter logistic curve fit in ActivityBase XE (IDBS).

Mer = target: T1, Mer (Homo sapiens, UniProt Q12866); experiment: Mer autophosphorylation ELISA in transient transfected 293A cells; details: Table 3 Cellular Activities; MERTK-transfected 293A cells, phospho-Mer ELISA
T1 construct: host or cells: 293A cells (Thermo Fisher #R70507)
T1 sequence (Q12866 21-999): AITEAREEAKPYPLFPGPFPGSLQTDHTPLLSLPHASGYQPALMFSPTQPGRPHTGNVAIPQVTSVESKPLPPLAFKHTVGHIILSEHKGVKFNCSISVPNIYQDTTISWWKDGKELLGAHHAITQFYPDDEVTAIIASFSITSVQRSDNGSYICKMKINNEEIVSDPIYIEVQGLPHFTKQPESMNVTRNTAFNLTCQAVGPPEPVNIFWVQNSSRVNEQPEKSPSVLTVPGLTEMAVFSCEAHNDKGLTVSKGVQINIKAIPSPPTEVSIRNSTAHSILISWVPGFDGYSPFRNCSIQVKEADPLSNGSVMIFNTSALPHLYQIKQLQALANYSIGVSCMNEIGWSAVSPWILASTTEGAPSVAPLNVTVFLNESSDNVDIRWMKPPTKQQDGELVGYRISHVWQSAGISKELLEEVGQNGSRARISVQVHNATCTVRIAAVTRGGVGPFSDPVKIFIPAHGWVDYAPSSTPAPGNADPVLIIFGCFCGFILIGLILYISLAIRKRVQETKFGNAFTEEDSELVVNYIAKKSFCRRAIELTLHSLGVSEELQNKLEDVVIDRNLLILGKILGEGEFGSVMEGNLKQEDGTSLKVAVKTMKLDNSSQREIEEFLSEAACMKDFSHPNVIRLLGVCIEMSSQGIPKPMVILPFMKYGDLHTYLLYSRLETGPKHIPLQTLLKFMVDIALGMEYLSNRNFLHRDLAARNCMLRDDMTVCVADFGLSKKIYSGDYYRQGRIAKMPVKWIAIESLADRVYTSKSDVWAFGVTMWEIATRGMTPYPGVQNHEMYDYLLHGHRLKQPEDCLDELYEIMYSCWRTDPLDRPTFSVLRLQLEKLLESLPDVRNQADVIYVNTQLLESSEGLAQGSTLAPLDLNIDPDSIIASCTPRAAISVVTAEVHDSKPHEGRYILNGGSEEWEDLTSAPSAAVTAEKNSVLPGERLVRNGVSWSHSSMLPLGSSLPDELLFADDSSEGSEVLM
Description: 293A cells (Thermo Fisher #R70507) were seeded at 1.5×10^6 cells/well onto 100 mm dish (Greiner #664169), in DMEM (Thermo Fisher #11995-040) containing 10% FBS (Thermo Fisher #26140-079), 1% MEM NEAA (Thermo Fisher #11140-050), 1% GlutaMax (Thermo Fisher #35050-061), and 1% Penicillin Streptomycin (Thermo Fisher #15140-122). 293A cells were incubated at 37° C., 5% CO2 for 24 h and then transfected with 6μg MERTK DNA (Genecopoeia #EX-Z8208-M02) using TransIT LT1 transfection reagent (Mirus-Bio #MIR2305). After 24 h incubation, the transfected 293A cells were seeded at 1×10^5 cells/well onto 96-well plates (Corning #3904) in DMEM growth medium overnight. Test compounds were serially diluted to produce an 8-point dose curve in fresh serum-free medium to a final concentration of 0.3% DMSO (vehicle) and added to the cells and incubated for 1 h. Cells were then immediately lysed with 150 μL of cold 1× lysis buffer […], 137 mM sodium chloride, 2 mM EDTA, 10% glycerol, 1% NP-40 alternative, 1 mM activated sodium orthovanadate, 1 mM PefaBloc SC (Sigma-Aldrich #11429868001), protease/phosphatase inhibitor tablet (Thermo Fisher #A32959)]. Lysates were clarified by centrifugation and 50 μL/well added into the human phospho-Mer DuoSet IC ELISA (R&D Systems #DYC2579-2). Assay was performed according to manufacturer's instructions and sample phospho-Mer concentrations were extrapolated using human phospho-Mer control (R&D Systems #841793) as a standard. Positive control wells (100% activity) contained DMSO-treated cell lysates. Negative control wells (0% activity) contained reference inhibitor-treated cell lysates. IC50 values were calculated by nonlinear regression analysis using a 4-parameter logistic curve fit in ActivityBase XE (IDBS).

Met = Met (Homo sapiens, UniProt P08581); experiment: Met autophosphorylation ELISA in PC-3 cells; parameters: endogenous in cells; host or cells: PC-3 prostate cancer cells (ATCC #CRL-1435); details: Table 3 Cellular Activities, HGF-stimulated, phospho-Met ELISA, read-out: c-Met IC50
Chain of Met (P08581 25-1390): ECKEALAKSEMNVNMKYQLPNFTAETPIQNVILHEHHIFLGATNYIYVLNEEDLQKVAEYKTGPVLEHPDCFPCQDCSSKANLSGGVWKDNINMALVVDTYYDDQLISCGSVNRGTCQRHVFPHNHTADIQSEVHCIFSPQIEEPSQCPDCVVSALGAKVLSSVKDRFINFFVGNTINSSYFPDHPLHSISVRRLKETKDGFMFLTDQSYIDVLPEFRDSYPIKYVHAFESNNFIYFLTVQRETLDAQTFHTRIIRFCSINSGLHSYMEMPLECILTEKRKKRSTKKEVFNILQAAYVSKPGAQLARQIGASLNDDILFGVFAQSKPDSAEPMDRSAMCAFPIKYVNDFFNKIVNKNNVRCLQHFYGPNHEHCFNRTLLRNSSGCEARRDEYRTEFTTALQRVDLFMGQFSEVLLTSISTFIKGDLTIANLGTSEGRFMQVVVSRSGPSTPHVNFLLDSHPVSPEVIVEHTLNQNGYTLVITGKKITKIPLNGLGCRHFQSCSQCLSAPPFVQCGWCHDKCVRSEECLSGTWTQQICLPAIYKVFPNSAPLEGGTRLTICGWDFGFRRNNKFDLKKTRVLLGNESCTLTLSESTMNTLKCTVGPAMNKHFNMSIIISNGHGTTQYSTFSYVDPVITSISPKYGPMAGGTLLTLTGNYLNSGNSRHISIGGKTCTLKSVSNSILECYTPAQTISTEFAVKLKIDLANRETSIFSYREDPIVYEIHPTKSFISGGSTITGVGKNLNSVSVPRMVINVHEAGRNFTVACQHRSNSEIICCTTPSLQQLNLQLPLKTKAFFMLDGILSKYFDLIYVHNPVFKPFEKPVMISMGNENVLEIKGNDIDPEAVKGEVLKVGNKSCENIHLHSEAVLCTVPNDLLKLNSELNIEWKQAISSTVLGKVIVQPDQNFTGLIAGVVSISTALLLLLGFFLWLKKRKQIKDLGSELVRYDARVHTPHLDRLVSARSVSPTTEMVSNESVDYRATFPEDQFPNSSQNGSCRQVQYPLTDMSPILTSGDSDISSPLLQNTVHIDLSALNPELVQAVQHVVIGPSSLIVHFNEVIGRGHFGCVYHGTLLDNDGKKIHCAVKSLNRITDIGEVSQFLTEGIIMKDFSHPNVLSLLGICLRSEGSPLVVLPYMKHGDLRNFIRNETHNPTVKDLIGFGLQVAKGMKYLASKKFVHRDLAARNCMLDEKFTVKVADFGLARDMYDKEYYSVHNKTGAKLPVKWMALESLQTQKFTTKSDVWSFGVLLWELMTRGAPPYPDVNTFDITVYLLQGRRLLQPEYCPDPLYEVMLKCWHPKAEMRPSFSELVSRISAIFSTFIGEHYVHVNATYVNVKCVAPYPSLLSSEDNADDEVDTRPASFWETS
Description: PC-3 prostate cancer cells (ATCC #CRL-1435) were seeded at 4×10^4 cells/well onto 24-well plates (Greiner #662165), in DMEM (Thermo Fisher #11995-040) containing 10% FBS (Thermo Fisher #26140-079), 1% MEM NEAA (Thermo Fisher #11140-050), 1% GlutaMax (Thermo Fisher #35050-061), and 1% Penicillin Streptomycin (Thermo Fisher #15140-122). PC-3 cells were incubated at 37° C., 5% CO2 for 24 h and then starved for 3 h in serum-free medium. Test compounds were serially diluted to produce an 8-point dose curve in fresh serum-free medium to a final concentration of 0.3% DMSO (vehicle) and added to the cells and incubated for 1 h. Cells were then stimulated with 100 ng/mL recombinant human HGF (R&D Systems #294-HG-250) for 10 min, washed with cold PBS, and immediately lysed with 130 μL of cold 1× lysis buffer [20 mM Tris, 137 mM sodium chloride, 2 mM EDTA, 10% glycerol, 1% NP-40 alternative, 1 mM activated sodium orthovanadate, 1 mM PefaBloc SC (Sigma-Aldrich #11429868001), protease/phosphatase inhibitor tablet (Thermo Fisher #A32959)]. Lysates were clarified by centrifugation and 100 μL/well added into the PathScan phospho-Met (panTyr) Sandwich ELISA (Cell Signaling Technology #7333). Assay was performed according to manufacturer's instructions. Positive control wells (100% activity) contained HGF-stimulated, DMSO-treated cell lysates. Negative control wells (0% activity) contained HGF-stimulated, reference inhibitor-treated cell lysates. IC50 values were calculated by nonlinear regression analysis using a 4-parameter logistic curve fit in ActivityBase XE (IDBS).

Chain of KDR (P35968 20-1356): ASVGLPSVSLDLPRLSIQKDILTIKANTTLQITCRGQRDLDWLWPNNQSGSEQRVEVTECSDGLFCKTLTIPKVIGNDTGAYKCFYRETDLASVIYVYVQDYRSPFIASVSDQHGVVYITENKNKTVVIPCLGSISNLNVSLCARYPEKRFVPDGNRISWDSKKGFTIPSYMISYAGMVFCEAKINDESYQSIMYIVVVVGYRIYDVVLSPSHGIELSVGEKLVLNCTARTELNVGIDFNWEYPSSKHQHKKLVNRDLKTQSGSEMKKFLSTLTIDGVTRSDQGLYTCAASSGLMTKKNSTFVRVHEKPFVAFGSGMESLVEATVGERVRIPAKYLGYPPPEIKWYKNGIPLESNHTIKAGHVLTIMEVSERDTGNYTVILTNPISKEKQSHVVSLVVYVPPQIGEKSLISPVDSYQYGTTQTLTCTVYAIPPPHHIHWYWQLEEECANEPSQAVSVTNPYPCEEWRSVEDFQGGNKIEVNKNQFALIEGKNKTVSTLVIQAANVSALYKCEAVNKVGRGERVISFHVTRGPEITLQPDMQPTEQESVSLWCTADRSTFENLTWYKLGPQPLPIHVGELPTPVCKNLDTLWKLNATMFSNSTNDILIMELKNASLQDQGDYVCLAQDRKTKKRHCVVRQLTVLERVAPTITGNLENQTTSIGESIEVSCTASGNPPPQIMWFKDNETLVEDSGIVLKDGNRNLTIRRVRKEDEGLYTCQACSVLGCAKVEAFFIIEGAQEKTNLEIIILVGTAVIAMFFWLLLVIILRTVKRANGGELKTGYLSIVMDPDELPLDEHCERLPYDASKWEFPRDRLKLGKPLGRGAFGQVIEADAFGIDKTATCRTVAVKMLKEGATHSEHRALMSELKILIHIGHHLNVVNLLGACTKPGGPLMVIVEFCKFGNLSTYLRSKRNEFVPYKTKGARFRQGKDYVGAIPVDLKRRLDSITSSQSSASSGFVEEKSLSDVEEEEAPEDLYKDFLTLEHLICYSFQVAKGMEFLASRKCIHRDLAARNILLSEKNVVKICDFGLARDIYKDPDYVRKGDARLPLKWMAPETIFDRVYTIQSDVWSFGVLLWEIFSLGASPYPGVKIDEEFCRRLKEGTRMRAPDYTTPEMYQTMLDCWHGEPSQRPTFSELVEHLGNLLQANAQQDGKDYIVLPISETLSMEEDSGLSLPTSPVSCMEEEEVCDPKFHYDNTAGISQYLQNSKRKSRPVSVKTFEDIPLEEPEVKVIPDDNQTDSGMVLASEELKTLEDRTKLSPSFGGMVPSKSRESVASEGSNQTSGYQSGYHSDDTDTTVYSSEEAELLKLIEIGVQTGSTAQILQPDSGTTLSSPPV

| SMILES | IC50 (KDR) [nM] | IC50 (Mer) [nM] | IC50 (Met) [nM] |
| --- | --- | --- | --- |
| COc1cc2nccc(Oc3ccc(NC(=O)c4c5n(c(C)c(-c6ccoc6)c4=O)CCOC5)cc3F)c2nc1OC [Compound 308, N-[4-[(6,7-Dimethoxy-1,5-naphthyridin-4-yl)oxy]-3-fluorophenyl]-7-(furan-3-yl)-6-methyl-8-oxo-3,4-dihydro-1H-pyrido [2,1-c][1,4]oxazine-9-carboxamide] | 300 to 1000 | ≤ 100 | ≤ 100 |
| COc1cc2nccc(Oc3ccc(NC(=O)c4c5n(c(C)c(-c6ccsc6)c4=O)CCOC5)cc3)c2nc1OC [Compound 312, N-[4-[(6,7-Dimethoxy-1,5-naphthyridin-4-yl)oxy]phenyl]-6-methyl-8-oxo-7-thiophen-3-yl-3,4-dihydro-1H-pyrido [2,1-c][1,4]oxazine-9-carboxamide] | – | ≤ 100 | ≤ 100 |
| CCc1c(C(=O)Nc2ccc(Oc3ccnc4cc(OC)c(OC)nc34)cc2)c(=O)c(-c2ccco2)c(C)n1C [Compound 325, N-[4-[(6,7-Dimethoxy-1,5-naphthyridin-4-yl)oxy]phenyl]-2-ethyl-5-(furan-2-yl)-1,6-dimethyl-4-oxopyridine-3-carboxamide] | 300 to 1000 | ≤ 100 | 300 to 1000 |
| COCCOc1cnc2c(Oc3ccc(NC(=O)c4c(C)n(C)c(C)c(-c5ccco5)c4=O)cc3F)ccnc2c1 [Compound 266, N-[3-Fluoro-4-[[7-(2-methoxyethoxy)-1,5-naphthyridin-4-yl]oxy]phenyl]-5-(furan-2-yl)-1,2,6-trimethyl-4-oxopyridine-3-carboxamide] | 300 to 1000 | ≤ 100 | ≤ 100 |
| COc1cc2nccc(Oc3ccc(NC(=O)c4c5n(c(C)c(-c6ccco6)c4=O)CCOC5)cc3)c2nc1OC [Compound 315, N-[4-[(6,7-Dimethoxy-1,5-naphthyridin-4-yl)oxy]phenyl]-7-(furan-2-yl)-6-methyl-8-oxo-3,4-dihydro-1H-pyrido[2,1-c][1,4]oxazine-9-carboxamide] | – | ≤ 100 | ≤ 100 |
| COc1cc2nccc(Oc3ccc(NC(=O)c4c5n(c(C)c(-c6cccs6)c4=O)CCOC5)cc3)c2nc1OC [Compound 316, N-[4-[(6,7-Dimethoxy-1,5-naphthyridin-4-yl)oxy]phenyl]-6-methyl-8-oxo-7-thiophen-2-yl-3,4-dihydro-1H-pyrido [2,1-c][1,4]oxazine-9-carboxamide] | – | ≤ 100 | ≤ 100 |
| COc1cc2nccc(Oc3ccc(NC(=O)c4c5n(c(C)c(-c6ccco6)c4=O)CCOC5)cc3F)c2nc1OC [Compound 314, N-[4-[(6,7-Dimethoxy-1,5-naphthyridin-4-yl)oxy]-3-fluorophenyl]-7-(furan-2-yl)-6-methyl-8-oxo-3,4-dihydro-1H-pyrido[2,1-c][1,4]oxazine-9-carboxamide] | – | ≤ 100 | ≤ 100 |
| CCOc1ccc(-n2c(C)ccc(C(=O)Nc3ccc(Oc4ccnc5cc(OC)c(OC)nc45)c(F)c3)c2=O)nc1 [Compound 212, N-[4-[(6,7-Dimethoxy-1,5-naphthyridin-4-yl)oxy]-3-fluorophenyl]-1-(5-ethoxypyridin-2-yl)-6-methyl-2-oxopyridine-3-carboxamide] | – | – | 100 to 300 |
| COc1cc2nccc(Oc3ccc(NC(=O)c4c5n(c(C)c(-c6cc(C)cs6)c4=O)CCOC5)cc3)c2nc1OC [Compound 313, N-[4-[(6,7-Dimethoxy-1,5-naphthyridin-4-yl)oxy]phenyl]-6-methyl-7-(4-methylthiophen-2-yl)-8-oxo-3,4-dihydro-1H-pyrido[2,1-c][1,4]oxazine-9-carboxamide] | – | ≤ 100 | 100 to 300 |
| CCOc1ccc(-n2c(C)ccc(C(=O)Nc3ccc(Oc4ccnc5cc(OC)cnc45)c(F)c3)c2=O)nc1 [Compound 213, 1-(5-Ethoxypyridin-2-yl)-N-[3-fluoro-4-[(7-methoxy-1,5-naphthyridin-4-yl)oxy]phenyl]-6-methyl-2-oxopyridine-3-carboxamide] | – | – | 300 to 1000 |
| COc1cc2nccc(Oc3ccc(NC(=O)c4c5n(c(C)c(-c6ccoc6)c4=O)CCOC5)cc3)c2nc1OC [Compound 311, N-[4-[(6,7-Dimethoxy-1,5-naphthyridin-4-yl)oxy]phenyl]-7-(furan-3-yl)-6-methyl-8-oxo-3,4-dihydro-1H-pyrido[2,1-c][1,4]oxazine-9-carboxamide] | – | ≤ 100 | ≤ 100 |
